Test results taken from patent US20210092956A1, “Safening Rice Against Group 15 Herbicides” (THE BOARD OF TRUSTEES OF THE UNIVERSITY OF ARKANSAS, priority 2019, published 2021).

What was measured:
Diamond rice = tested on: Diamond rice; set-up: species or system Oryza sativa L.; conditions: in vivo
Method: The experiment was conducted within a growth chamber at 13.8° C. (night) and 23.8° C. (day) using a 10-hour night and 14-hour day photoperiod. Diamond rice was planted in pots filled to the same weight of soil to maintain 80% soil moisture throughout the experiment. […] Data were analyzed using R and subjected to ANOVA. Means were separated using Fisher's LSD (α=0.05).

barnyardgrass = test: Field weed control with ME acetochlor, barnyardgrass; assay type: in vivo, Echinochloa crus-galli; conditions: fenclorim seed treatment with ME acetochlor
Method: (§1) The experiment was conducted under standard small-plot research practices. Diamond rice was planted at 72 seeds m^−1 row. […] Data were analyzed using R and subjected ANOVA. Means were separated using Fisher's LSD (α=0.05).

weedy rice or red rice = test: Field weed control with ME acetochlor, weedy rice; assay type: in vivo, Oryza sativa L. var. sylvatica; conditions: fenclorim seed treatment with ME acetochlor
Method: as §1

SMILES: Clc1cc(Cl)nc(-c2ccccc2)n1 [fenclorim, 4,6-dichloro-2-phenyl-pyrimidine]
- Biomass (Diamond rice): 99%
- Height (Diamond rice): 13.7 cm
- Injury (Diamond rice): 0%
- Stand reduction (Diamond rice): 3%
- effect of the seed treatment on weed control (barnyardgrass): did not negatively affect weed control
- effect of the seed treatment on weed control (weedy rice or red rice): did not negatively affect weed control
